According to US9834542B2, “LXR modulators” (BRISTOL-MYERS SQUIBB COMPANY, priority 2013, dated 2017):

Target: T1, LXRβ (Homo sapiens, UniProt P55055)
T1 construct: Co-transfection expression plasmids, comprising full-length LXRα (pCMX-h LXRα[…] or LXRβ (pCMX-hLXRβ)); expressed in transfected cells; host or cells: CV-1 African Green Monkey Kidney Cells
T1 sequence (P55055 1-460): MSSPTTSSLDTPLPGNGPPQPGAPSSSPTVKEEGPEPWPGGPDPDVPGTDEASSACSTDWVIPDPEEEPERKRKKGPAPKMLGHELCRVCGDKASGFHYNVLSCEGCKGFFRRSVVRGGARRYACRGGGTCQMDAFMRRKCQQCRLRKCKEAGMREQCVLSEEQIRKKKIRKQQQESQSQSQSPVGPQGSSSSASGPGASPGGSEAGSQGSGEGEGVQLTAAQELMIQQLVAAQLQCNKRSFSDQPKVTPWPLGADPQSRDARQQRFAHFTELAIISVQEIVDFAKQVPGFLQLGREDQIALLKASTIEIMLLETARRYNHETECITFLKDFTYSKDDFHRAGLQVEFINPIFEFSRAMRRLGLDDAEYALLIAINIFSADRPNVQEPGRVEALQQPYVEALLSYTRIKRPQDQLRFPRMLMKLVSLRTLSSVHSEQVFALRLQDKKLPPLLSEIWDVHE
T1 sequence (P19793 1-462 partner): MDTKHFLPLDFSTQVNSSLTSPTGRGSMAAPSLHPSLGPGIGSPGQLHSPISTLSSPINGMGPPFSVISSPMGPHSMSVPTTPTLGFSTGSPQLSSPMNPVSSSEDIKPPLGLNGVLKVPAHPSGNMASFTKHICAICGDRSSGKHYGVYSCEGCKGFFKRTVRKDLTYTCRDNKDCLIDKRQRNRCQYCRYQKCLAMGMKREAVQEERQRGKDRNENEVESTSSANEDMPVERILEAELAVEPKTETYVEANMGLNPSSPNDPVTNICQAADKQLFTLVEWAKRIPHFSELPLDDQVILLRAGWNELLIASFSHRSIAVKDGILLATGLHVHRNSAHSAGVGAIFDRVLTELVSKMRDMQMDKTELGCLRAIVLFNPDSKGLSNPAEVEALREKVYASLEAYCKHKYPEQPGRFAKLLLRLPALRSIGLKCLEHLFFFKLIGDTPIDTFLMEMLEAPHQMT
Experiment: Co-transfection assay (LXRE luciferase reporter), LXRβ
Format: cell-based
Details: for EC50: CV-1 cells transfected with pCMX-hLXRβ and LXREx1-Tk-Luciferase, 20 hours incubation; for Emax: LXRβ co-transfection, relative to high control 1-(2,4-difluorobenzyl)-2-oxo-6-(4-phenoxyphenyl)-4-(trifluoromethyl)-1,2-dihydropyridine-3-carbonitrile, read-out: % Efficacy
Outline: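 Cell-based LXRβ agonism measured as LXRE-luciferase induction in transiently transfected CV-1 cells after 20 h treatment. Potency is the curve-fit EC50; efficacy is expressed as percent of a full-agonist control's maximal response.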

| Structure (SMILES) | EC50 [nM] | Emax [%] |
| --- | --- | --- |
| Cc1nc(-c2cc(-c3cccc(S(C)(=O)=O)c3)ccc2-n2cc(C(F)(F)F)nc2C)c(-c2ccc3c(c2)CCC3)o1 [Example 474, 5-(2,3-dihydro-1H-inden-5-yl)-2-methyl-4-(4-(2-methyl-4-(trifluoromethyl)-1H-imidazol-1-yl)-3′-(methylsulfonyl)biphenyl-3-yl)oxazole] | 119 | 53 |
| Cc1nc(-c2cc(-c3cc(F)c(CO)c(S(C)(=O)=O)c3)ccc2-n2cc(C(F)(F)F)nc2C)c(-c2ccc3c(c2)CCC3)o1 [Example 475, (3′-(5-(2,3-dihydro-1H-inden-5-yl)-2-methyloxazol-4-yl)-3-fluoro-4′-(2-methyl-4-(trifluoromethyl)-1H-imidazol-1-yl)-5-(methylsulfonyl)biphenyl-4-yl)methanol] | 69 | 56 |
| Cc1nc(-c2cc(-c3ccc(C)c(S(C)(=O)=O)c3)ccc2-n2cc(C(F)(F)F)nc2C)c(-c2ccc(C(F)(F)F)nc2Cl)o1 [Example 476, 5-(2-chloro-6-(trifluoromethyl)pyridin-3-yl)-2-methyl-4-(4′-methyl-4-(2-methyl-4-(trifluoromethyl)-1H-imidazol-1-yl)-3′-(methylsulfonyl)biphenyl-3-yl)oxazole] | 726 | 39 |
| Cc1nc(-c2cc(-c3cc(F)c(CO)c(S(C)(=O)=O)c3)ccc2-n2cc(C(F)(F)F)nc2C)c(-c2ccc(C(F)(F)F)nc2Cl)o1 [Example 477, (3′-(5-(2-chloro-6-(trifluoromethyl)pyridin-3-yl)-2-methyloxazol-4-yl)-3-fluoro-4′-(2-methyl-4-(trifluoromethyl)-1H-imidazol-1-yl)-5-(methylsulfonyl)biphenyl-4-yl)methanol] | 271 | 66 |
| Cc1nc(-c2cc(-c3cccc(S(C)(=O)=O)c3)ccc2-n2cc(C(F)(F)F)nc2C)c(-c2ccc(Cl)cc2Cl)o1 [Example 486, 5-(2,4-dichlorophenyl)-2-methyl-4-(4-(2-methyl-4-(trifluoromethyl)-1H-imidazol-1-yl)-3′-(methylsulfonyl)biphenyl-3-yl)oxazole] | 109 | 89 |
| Cc1nc(-c2cc(-c3cc(F)c(CO)c(S(C)(=O)=O)c3)ccc2-n2cc(C(F)(F)F)nc2C)c(-c2ccc3c(c2)C(O)C(F)(F)O3)o1 (stereo not shown) [Example 487, 2,2-difluoro-5-(4-(3′-fluoro-4′-(hydroxymethyl)-4-(2-methyl-4-(trifluoromethyl)-1H-imidazol-1-yl)-5′-(methylsulfonyl)biphenyl-3-yl)-2-methyloxazol-5-yl)-2,3-dihydrobenzofuran-3-ol] | 815 | 59 |
| Cc1nc(C(N)=O)cn1-c1ccc(-c2cccc(S(C)(=O)=O)c2)cc1-c1nc(C2CC2)oc1-c1ccc2c(c1)OC(F)(F)O2 [Example 489, 1-(3-(2-cyclopropyl-5-(2,2-difluorobenzo[d][1,3]dioxol-5-yl)oxazol-4-yl)-3′-(methylsulfonyl)biphenyl-4-yl)-2-methyl-1H-imidazole-4-carboxamide] | 1080 | 35 |
| Cc1nc(C(N)=O)cn1-c1ccc(-c2cc(F)c(CO)c(S(C)(=O)=O)c2)cc1-c1nc(C2CC2)oc1-c1ccc2c(c1)OC(F)(F)O2 [Example 490, 1-(3-(2-cyclopropyl-5-(2,2-difluorobenzo[d][1,3]dioxol-5-yl)oxazol-4-yl)-3′-fluoro-4′-(hydroxymethyl)-5′-(methylsulfonyl)biphenyl-4-yl)-2-methyl-1H-imidazole-4-carboxamide] | 76 | 54 |
| Cc1ccc(-c2oc(C)nc2-c2cc(-c3cccc(S(C)(=O)=O)c3)ccc2-n2cc(C(F)(F)F)nc2C)cc1 [Example 491, 2-methyl-4-(4-(2-methyl-4-(trifluoromethyl)-1H-imidazol-1-yl)-3′-(methylsulfonyl)-[1,1′-biphenyl]-3-yl)-5-(p-tolyl)oxazole] | 63 | 71 |

Further lines, results first:

| EC50 [nM] | Emax [%] | Structure (SMILES) |
| --- | --- | --- |
| 32 | 89 | CCc1nc(-c2cc(-c3cccc(S(C)(=O)=O)c3)ccc2-n2cc(C(F)(F)F)nc2C)c(-c2ccc3c(c2)OC(F)(F)O3)o1 [Example 478, 5-(2,2-difluorobenzo[d][1,3]dioxol-5-yl)-2-ethyl-4-(4-(2-methyl-4-(trifluoromethyl)-1H-imidazol-1-yl)-3′-(methylsulfonyl)biphenyl-3-yl)oxazole] |
| 30 | 81 | CCc1nc(-c2cc(-c3cc(F)c(CO)c(S(C)(=O)=O)c3)ccc2-n2cc(C(F)(F)F)nc2C)c(-c2ccc3c(c2)OC(F)(F)O3)o1 [Example 479, (3′-(5-(2,2-difluorobenzo[d][1,3]dioxol-5-yl)-2-ethyloxazol-4-yl)-3-fluoro-4′-(2-methyl-4-(trifluoromethyl)-1H-imidazol-1-yl)-5-(methylsulfonyl)biphenyl-4-yl)methanol] |
| 63 | 74 | Cc1nc(C(F)(F)F)cn1-c1ccc(-c2cccc(S(C)(=O)=O)c2)cc1-c1nc(C(C)C)oc1-c1ccc2c(c1)OC(F)(F)O2 [Example 480, 5-(2,2-difluorobenzo[d][1,3]dioxol-5-yl)-2-isopropyl-4-(4-(2-methyl-4-(trifluoromethyl)-1H-imidazol-1-yl)-3′-(methylsulfonyl)biphenyl-3-yl)oxazole] |
| 54 | 66 | Cc1nc(C(F)(F)F)cn1-c1ccc(-c2cc(F)c(CO)c(S(C)(=O)=O)c2)cc1-c1nc(C(C)C)oc1-c1ccc2c(c1)OC(F)(F)O2 [Example 481, (3′-(5-(2,2-difluorobenzo[d][1,3]dioxol-5-yl)-2-isopropyloxazol-4-yl)-3-fluoro-4′-(2-methyl-4-(trifluoromethyl)-1H-imidazol-1-yl)-5-(methylsulfonyl)biphenyl-4-yl)methanol] |
| 40 | 71 | Cc1nc(C(F)(F)F)cn1-c1ccc(-c2cccc(S(C)(=O)=O)c2)cc1-c1nc(C2CC2)oc1-c1ccc2c(c1)OC(F)(F)O2 [Example 482, 2-cyclopropyl-5-(2,2-difluorobenzo[d][1,3]dioxol-5-yl)-4-(4-(2-methyl-4-(trifluoromethyl)-1H-imidazol-1-yl)-3′-(methylsulfonyl)biphenyl-3-yl)oxazole] |
| 40 | 66 | Cc1nc(C(F)(F)F)cn1-c1ccc(-c2cc(F)c(CO)c(S(C)(=O)=O)c2)cc1-c1nc(C2CC2)oc1-c1ccc2c(c1)OC(F)(F)O2 [Example 483] |
| 48 | 57 | Cc1nc(-c2cc(-c3cccc(S(C)(=O)=O)c3)ccc2-n2cc(C(F)(F)F)nc2C)c(-c2ccc(Cl)cc2F)o1 [Example 484, 5-(4-chloro-2-fluorophenyl)-2-methyl-4-(4-(2-methyl-4-(trifluoromethyl)-1H-imidazol-1-yl)-3′-(methylsulfonyl)biphenyl-3-yl)oxazole] |
| 32 | 55 | Cc1nc(-c2cc(-c3cc(F)c(CO)c(S(C)(=O)=O)c3)ccc2-n2cc(C(F)(F)F)nc2C)c(-c2ccc(Cl)cc2F)o1 [Example 485, (3′-(5-(4-chloro-2-fluorophenyl)-2-methyloxazol-4-yl)-3-fluoro-4′-(2-methyl-4-(trifluoromethyl)-1H-imidazol-1-yl)-5-(methylsulfonyl)biphenyl-4-yl)methanol] |
| 17 | 66 | Cc1nc(-c2cc(-c3cc(F)c(CO)c(S(C)(=O)=O)c3)ccc2-n2cc(C(F)(F)F)nc2C)c(-c2ccc(Cl)cc2Cl)o1 [Example 488, (3′-(5-(2,4-dichlorophenyl)-2-methyloxazol-4-yl)-3-fluoro-4′-(2-methyl-4-(trifluoromethyl)-1H-imidazol-1-yl)-5-(methylsulfonyl)biphenyl-4-yl)methanol] |
| 34 | 64 | Cc1ccc(-c2oc(C)nc2-c2cc(-c3cc(F)c(CO)c(S(C)(=O)=O)c3)ccc2-n2cc(C(F)(F)F)nc2C)cc1 [Example 492, (3-fluoro-4′-(2-methyl-4-(trifluoromethyl)-1H-imidazol-1-yl)-3′-(2-methyl-5-p-tolyloxazol-4-yl)-5-(methylsulfonyl)biphenyl-4-yl)methanol] |
| 40 | 95 | Cc1nc(-c2cc(-c3cccc(S(C)(=O)=O)c3)ccc2-n2cc(C(F)(F)F)nc2C)c(-c2ccc3c(c2)OC(F)(F)O3)o1 [Example 493, 5-(2,2-difluorobenzo[d][1,3]dioxol-5-yl)-2-methyl-4-(4-(2-methyl-4-(trifluoromethyl)-1H-imidazol-1-yl)-3′-(methylsulfonyl)biphenyl-3-yl)oxazole] |
